Measurements from PubChem BioAssay AID493240 (Broad Institute, 2011).

Test system: SK-MEL-5 viability, ATP luminescence (CellTiter-Glo), 24 h
Experiment: SK-MEL-5 parental cell viability loss, dose response, orthogonal assay for MITF inhibitor project, CellTiter-Glo, cherry-picked, set 3 (AID 493240)

Compound	AC50
O=C(NCC1CCCCC1)C1(CC2CC(c3cccc(Br)c3)=NO2)CCNCC1 (stereo unspecified)	18 µM
Cc1ccc(C(O)(c2ccc(C)c(C)c2)C2CN3CCC2CC3)cc1C (stereo unspecified)	17.1 µM
O=C(CCl)N(c1ccccc1)C1CCCCC1	32.3 µM
O=C1Nc2cc(C(=O)NCCN3CCCCCC3)ccc2S/C1=C\c1ccccc1	19.2 µM
C(#Cc1ccccc1)C[N+]1(CC#Cc2cccc3ccccc23)CCCC1	17.9 µM
Cc1ccccc1NC(=O)Cc1nc(COC(=O)c2ccc(S(C)(=O)=O)c([N+](=O)[O-])c2)cs1	27.3 µM
Cc1ccccc1-c1nc(-c2ccccn2)no1	20.7 µM
CCc1cc[n+](C2=C([O-])c3ccccc3C(=O)/C2=N\S(=O)(=O)c2cccs2)cc1	5.72 µM
CC1CCC(C(C)C)C(OC(=O)Cn2c(-c3ccc(F)cc3)[n+](C)c3ccccc32)C1 (stereo unspecified)	8.02 µM
O=C1C=C(N(CCO)Cc2ccccc2)c2ccccc2C1=O	13.3 µM
COc1ccc(Br)cc1/C=C/C(=O)c1ccc(NC(C)=O)cc1	26.7 µM
CCCCn1c(=N)n(CCOc2ccc(C)cc2)c2ccccc21	17.6 µM
CCCCN(CC)CCCNC(=O)c1cc2c(=O)n(CC)c3ccccc3c2s1	23.2 µM
O=C1c2cc(F)ccc2-n2c1nc1ccccc1c2=O	5.5 µM
COc1cc(NC(=O)COc2cc(O)c3c(c2)OC(C)(C)CC3=O)cc(OC)c1OC	23.4 µM
CC1CCC(C(C)C)C(OC(=O)C[n+]2cc(-c3ccc(Cl)cc3)n3c2CCCCC3)C1 (stereo unspecified)	17.2 µM
COC(=O)C1=C(C)N(Cc2ccccc2)C(=NCc2ccccc2)N[C@H]1c1ccccc1	26.8 µM
CC1CCC(C(C)C)C(OC(=O)Cn2c(-c3ccccc3)[n+](C)c3ccccc32)C1 (stereo unspecified)	5.45 µM
O=C(Nc1ccccn1)c1ccc(Br)s1	2.08 µM
Cc1c(CCOC(=O)c2ccc(Cl)cc2Cl)sc[n+]1CC(=O)c1ccc(Br)cc1	28.8 µM
Cc1ccccc1-c1nc(CN2CCC(C(=O)NCCCN3CCCC(C)C3)CC2)c(C)o1 (stereo unspecified)	28.9 µM
N#C/C(=C(/O)c1ccc([N+](=O)[O-])o1)c1nc2ccccc2[nH]1	16.3 µM
COc1ccc(Oc2cc(NC(=O)c3nn(C)cc3[N+](=O)[O-])cc([N+](=O)[O-])c2)cc1	30.4 µM
Cc1ccc(-c2cn(-c3ccc(SC(F)F)cc3)c3[n+]2CCC3)cc1	28 µM
O=C(Nc1ccc(Nc2ccncc2)cc1)c1ccc([N+](=O)[O-])cc1	34.3 µM
COc1ccccc1NS(=O)(=O)c1cc(NC(=O)c2ccc(Cl)nc2)ccc1Cl	24.3 µM

Compound	AC50
O=C1C(Cl)=C(Nc2ccccc2)C(=O)c2ccccc21	6.7 µM
CCS(=O)(=O)c1ccc(N=Nc2ccc(O)c3ncccc23)c(OC)c1	33.5 µM
C#CC(=O)N(c1ccc(OC)c(OC)c1)C(C(=O)NC1CCCC1)c1cccs1 (stereo unspecified)	22.1 µM
Cc1cc(C)n(-c2ccc(C(=O)Nc3ccc(C)c(S(=O)(=O)N4CCOCC4)c3)cc2)n1	28.1 µM
CCN1CCN(c2ccc(NC(=O)c3ccc([N+](=O)[O-])o3)cc2Cl)CC1	24.8 µM
Cc1ccc(C(=O)C[n+]2cc(-c3ccc(C)cc3)n3c2CCCCC3)cc1	14.4 µM
Cc1ccc(-n2cc(CNCCCn3cccn3)c(-c3cccc(C)c3)n2)cc1	20.1 µM
Cc1[nH]nc2nc(SCC(=O)NCCC3=CCCCC3)n(-c3ccc(Br)cc3)c(=N)c12	21.5 µM
CC(C)(C)c1ccc(Cn2c(=N)n(CC(O)c3ccco3)c3ccccc32)cc1 (stereo unspecified)	19.9 µM
O=C(C#Cc1ccccc1)c1cccc([N+](=O)[O-])c1	26.2 µM
CCN(CC)CCNC(=O)c1c(C)n(-c2ccccc2)c2cc(Br)c(OC)cc12	19.8 µM
COc1cc(NC(=O)COc2ccccc2[N+](=O)[O-])ccc1NC(=O)c1cccs1	26.4 µM
COc1cccc2c1C(=O)C=C(C)C2=O	18.8 µM
CS(=O)(=O)c1ccc(C(=O)OCC(=O)NCc2cccs2)cc1[N+](=O)[O-]	29.7 µM
CCCCCCCNC(=O)C1(CC2CC(c3ccc(Cl)cc3)=NO2)CCNCC1 (stereo unspecified)	18.2 µM
CC(=O)N1CCc2c(sc(NC(=O)c3ccc([N+](=O)[O-])o3)c2C#N)C1	17.2 µM
CC1=CC2/C=C(\C)CCC(O)C(O)/C=C/C(=O)C23C(=O)NC(CC(C)C)C3C1C (stereo unspecified)	15.9 µM
Cc1cc(C)c2sc(N(CCCN(C)C)C(=O)COc3ccc(Cl)cc3)nc2c1	24.7 µM
CN(C)CCCNc1nc2sc3c(c2c(=O)n1CCc1ccccc1)CCCCC3	19.8 µM
CCOc1ccc(-n2c(-c3ccc(OC)cc3)c[n+]3c2CCCCC3)cc1	19.6 µM
COc1ccc(CCn2c(=S)[nH]c3cc(C(=O)NCc4ccco4)ccc3c2=O)cc1OC	22.8 µM
COC1=C(Nc2ccc(O)cc2)C(=O)c2ccccc2C1=O	8.43 µM
COc1cc(/C=C/C(=O)c2ccc3c(c2)OCCO3)cc(Br)c1OCC(=O)N(C)C	18 µM
Cc1cc(C)cc(NS(=O)(=O)c2ccc3c(c2)c(=O)n(C)c(=O)n3C)c1	25.5 µM
Nc1nc2ccccc2n1/N=C/c1ccc([N+](=O)[O-])s1	25.8 µM
COc1ccc(C(=O)/C=C/C(=O)N(CC(=O)NC2CCCCC2)Cc2cccs2)c(O)c1	20.5 µM

Compound	AC50
CS(=O)(=O)c1ncc(Cl)c(C(=O)Nc2ccc3ccccc3c2)n1	18.3 µM
CC1(C)CC(NC(=O)c2ccc(Cl)c(S(=O)(=O)N(Cc3ccccc3)c3ccccc3)c2)CC(C)(C)N1	23.3 µM
Cc1ccc(C(C)C)c(OCc2nn(CC(=O)c3ccc(OC(F)F)cc3)c3[n+]2CCCCC3)c1	20.2 µM
Cc1c(N=C2C=CC(=O)c3ccccc32)c(=O)n(-c2ccccc2)n1C	30.9 µM
O=C(O)/C=C/C(=O)c1ccc2c(c1)CCc1ccccc1-2	30.5 µM
COc1cc(CNC2CCCC2)cc(Cl)c1OCc1ccccc1Cl	16.8 µM
CCCCC[n+]1ccn(C2=C([O-])c3ccccc3C(=O)/C2=N\S(=O)(=O)c2ccccc2)c1	15.5 µM
CCN(CC)CCCNC1=C(Cl)C(=O)c2ccccc2C1=O	5.82 µM
CN(C)CCCNC(=O)/C(=C\c1ccc(-c2ccc(Br)cc2)o1)NC(=O)c1ccccc1	16.7 µM
CCOC(=O)c1ccc(NC(=O)c2ccc(C)c(S(=O)(=O)N3CCOCC3)c2)cc1	17.5 µM
Cc1cccc(NC2=C(NC(=O)c3ccccc3)C(=O)c3ccccc3C2=O)c1	19.7 µM
CCN(CC)CCn1nc2c3c(cccc3c1=O)-c1ccccc1-2	20.3 µM
Cc1ccc(S(=O)(=O)/N=C2\C(=O)c3ccccc3C([O-])=C2n2cc[n+](CCC(C)C)c2)cc1	15.6 µM
Nc1c(N(CCC2=CCCCC2)C(=O)COc2ccc([N+](=O)[O-])cc2)c(=O)[nH]c(=O)n1Cc1ccccc1	33.7 µM
CCC(C)(C)c1ccc(OCCCC[n+]2ccccc2)c(C(C)(C)CC)c1	15.3 µM
COc1cccc(CNCCc2c[nH]c3ccccc23)c1OCc1ccccc1	16.8 µM
CN(C)CCCN(C(=O)CCc1ccccc1)c1nc2ccc(Br)cc2s1	16.5 µM
CC(=O)N(C)C1=C(N2CCOCC2)C(=O)c2ccccc2C1=O	7.92 µM
CC1CN(C(=O)CCC(=O)NCCCN2CCC(Cc3ccccc3)CC2)c2cc(Cl)ccc2O1 (stereo unspecified)	6.98 µM
O=C(N/N=C/c1ccc(F)cc1)c1c(O)c2ccccc2[nH]c1=O	26.9 µM
O=C(CCl)Nc1cccc(S(=O)(=O)N2CCCCCC2)c1	11.2 µM
OC(CNCC(c1ccc(Cl)cc1Cl)c1c[nH]c2ccccc12)c1ccccc1 (stereo unspecified)	16.8 µM
Cc1ccc(-c2nnc(SCC(=O)Nc3ccccc3F)o2)cc1	21.7 µM
CCOc1ccc(-n2c(-c3ccc(Br)cc3)c[n+]3c2CCCCC3)cc1	20.5 µM
